The values that follow are results of earlier work, collected in paper PMC2840068 (Vision research, 2009).

Series [1] concerns VEGF. The conditions noted are these: clinical trials in AMD patients; ref Gragoudas et al., 2004.
For series [2], the system named is VEGF. The conditions noted are these: ref Chang et al., 2007, Rosenfeld et al., 2006.

Consider pegaptanib, for which the therapeutic dose response result in series [1] is reported as “inverse therapeutic dose response”.

B1: ranibizumab: anti-VEGF antibody (ranibizumab) (antibody, chains of the INN, looked up, V domains shown)
VH: EVQLVESGGGLVQPGGSLRLSCAASGYDFTHYGMNWVRQAPGKGLEWVGWINTYTGEPTYAADFKRRFTFSLDTSKSTAYLQMNSLRAEDTAVYYCAKYPYYYGTSHWYFDVWGQGTLVTVSS
VL: DIQLTQSPSSLSASVGDRVTITCSASQDISNYLNWYQQKPGKAPKVLIYFTSSLHSGVPSRFSGSGSGTDFTLTISSLQPEDFATYYCQQYSTVPWTFGQGTKVEIK
Consider B1, for which the “AMD patients’ vision” value in series [2] is on record as “improvement of AMD patients’ vision”.
